Source: the METLIN SMRT retention time set (Domingo-Almenara et al. 2019)

Test: gradient 5% acetonitrile 3 min, to 50% in 2 min, to 85% in 15 min, held 3 min, 100 µL/min
Details: column: Zorbax Extend-C18 2.1 x 50 mm; eluents: water / acetonitrile, 0.1% formic acid
Summary of the method: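 Standards, all pure, were combined into mixtures of ~100 molecules and run at 100 μL/min on a Zorbax Extend-C18 column (2.1 × 50 mm, 1.8 μm) with water and acetonitrile, each containing 0.1% formic acid. A coupled quadrupole time-of-flight mass spectrometer operated in positive and negative ionization mode. Retention time values come from computationally picked adduct peaks, each inspected manually.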

SMILES	RP-LC retention time
O=C(NCCc1ccncc1)C1CCCN(c2nnc3ccc(C(F)(F)F)cn23)C1 (centres undefined)	537 s
CCOC(=O)c1cccc(Nc2c(C(=O)N3CCC(C)CC3)cnc3nc(C)ccc23)c1	666 s
COc1ccc(Cl)cc1C(=O)N1CCCN(C2CCN(CC3CC3)C2=O)CC1 (centres undefined)	553 s
Fc1cc(F)cc(-c2nnc(Cc3nc(-c4ccccc4F)no3)o2)c1	1060 s
COc1ccc(NC(=O)CCc2cccc3[nH]ccc23)cc1OC	755 s
COCCNC(=O)C1c2cc(OC)c(OC)cc2C(=O)N(C)C1c1ccc(OC)c(OC)c1 (centres undefined)	642 s
O=C(Cn1nc2c(N3CCc4ccccc4C3)nccn2c1=O)NCCC1=CCCCC1	984 s
COc1ccc(-c2ncc3c(n2)CCN(C(=O)c2ccc(C(F)(F)F)cc2)C3)cc1	1010 s
Cc1cc(C)c2c(N3CCSCC3)nc(C(=O)NCC3CCCO3)nc2n1 (centres undefined)	624 s
CCN(CC)CCNC(=O)CCC(=O)N1CCc2c(c(C(=O)N3CCCCC3)nn2C)C1	573 s
Cc1ccc(CNC(=O)C2(C)Oc3cccnc3NC2=O)cc1 (centres undefined)	702 s
Cc1ccc(NC(=O)C2CCN(S(C)(=O)=O)c3cc(Cl)ccc3O2)c(C)c1 (centres undefined)	992 s
Cc1oc2ccn(Cc3ccc(F)cc3)c(=O)c2c1C(=O)O	873 s
CCc1nc2cc(-c3noc(-c4ccsc4)n3)ccc2o1	1100 s
Cc1noc(C)c1-c1ccc(S(=O)(=O)Nc2ccc(F)cc2)cc1	904 s
CCOC(=O)c1noc2ncnc(NCc3cccc(OC)c3)c12	971 s
CC(C)Oc1ccc(-c2noc(Cc3nnc(-c4ccccc4)o3)n2)cc1	1100 s
CCc1ccc(NC(=O)N2CCC(OC3CCN(S(C)(=O)=O)CC3)CC2)cc1	770 s
Cc1ccc(-c2noc(CN3C(=O)COc4ccccc43)n2)cc1C	1110 s
CCOc1ccccc1C(=O)Nc1ccc2c(c1)Sc1ncccc1C(=O)N2C	806 s
COc1cccc(NC(=O)C2CCCN(c3ncnc4c3nc3n4CCCCC3)C2)c1 (centres undefined)	781 s
CCOC(=O)C1=C(CN2CCN(CC)CC2)NC(=O)NC1c1ccccc1Cl (centres undefined)	571 s
CCc1nc2cc(-c3noc(-c4ccc(OC)c(OC)c4)n3)ccc2o1	1080 s

SMILES	RP-LC retention time
Cn1nc(N2CCCC(NS(=O)(=O)c3cccc4cccnc34)C2)ccc1=O (centres undefined)	698 s
Cc1oc(-c2[nH]ncc2C(=O)N2CCCC2)cc1S(=O)(=O)Nc1cc(F)ccc1F	699 s
COc1ccc(NC(=O)N2CCN(Cc3nc4cc(-c5ccccc5)ccc4o3)CC2)cc1	823 s
CCN(CC)S(=O)(=O)c1ccc2c(c1)CC(C(=O)NC1CCCC1)N2C(C)=O (centres undefined)	855 s
COc1cc(C(=O)N2CCC(c3nc4cccnc4n3C)C2)ccc1C (centres undefined)	683 s
COc1ccc(C(=O)N2CCC(n3c(-c4ccoc4)nc4cccnc43)C2)cc1OC (centres undefined)	670 s
Cc1csc(-c2ccc(N3CCN(C(=O)Cc4cccc(Cl)c4)CC3)nc2)n1	896 s
COc1ccc(-c2noc(C3CCCN3C(=O)c3ccc(N(C)C)cc3)n2)cc1 (centres undefined)	961 s
CC(C)NC(=O)Cn1cccc1-c1nc(-c2ccc3c(c2)OCO3)no1	925 s
Cc1ccc(NC(=O)Cn2c(C)nc(C)c(C)c2=O)cc1C	690 s
Cc1ccc(F)cc1S(=O)(=O)N1CCC(n2cnnc2C2CC2)CC1	734 s
CN(C)CC1CN(C(=O)COc2ccccc2)CC12CCOCC2 (centres undefined)	599 s
Cc1ccc(-n2nc(OCC(=O)Nc3cc(F)ccc3F)ccc2=O)cc1C	866 s
O=C(c1cccc(F)c1)N1CCC(C(=O)N2CCN(Cc3ccc4c(c3)OCO4)CC2)CC1	610 s
CC(Cc1ccccc1)NC(N)=O (centres undefined)	698 s
CCn1cc(-c2nc(CC(=O)NCc3ccco3)cs2)c2cccnc21	793 s
O=C(Cn1nc2c(N3CCCCCC3)nccn2c1=O)Nc1ccccc1C(F)(F)F	727 s
Cc1ccc(NC(=O)Cn2c(=O)cc(-c3nc(C(C)C)no3)c3ccccc32)c(Cl)c1	1110 s
Cc1cccc(C)c1Nc1c(-c2c(F)cccc2Cl)nc2cnccn12	866 s
Cc1csc(-c2cc(S(=O)(=O)N3CCCCC3)c(C)n2C)n1	1040 s
O=C(c1ccc(F)cc1F)N1CCC(n2cnnc2C2CC2)CC1	633 s
COc1ccc(CNC(=O)C2CCN(S(=O)(=O)c3ccc4c(c3)sc(=O)n4C)CC2)cc1	795 s
CC(C)N1CCN(C(=O)c2cn(-c3ccc(-c4nc(C(C)(C)C)no4)cn3)cn2)CC1	671 s

SMILES	RP-LC retention time
O=S(=O)(Nc1cccn2ncnc12)c1ccc(F)cc1	694 s
Cc1ccc(S(=O)(=O)CCc2noc(-c3sc(C)nc3C)n2)cc1	818 s
Cn1cc(C2=CCN(C(=O)NCc3cccc(F)c3)CC2)c2cccnc21	791 s
O=C(O)c1cn(Cc2ccccn2)nc1S(=O)(=O)N1CCc2ccccc2C1	690 s
Cc1cccc(Nc2c(-c3ccc(N4CCOCC4)cc3)nc3cnccn23)c1C	867 s
CCn1cc(C)c(C(=O)O)c1CC(=O)N(C)c1cccc(Cl)c1	792 s
CCn1ccc2sc(C)c(C(=O)NCc3cccc(Br)c3)c2c1=O	918 s
Cc1nn(CC(=O)N2CCCCCC2)c(=O)c2c(-n3cccc3)n(-c3ccc(Cl)cc3)nc12	1090 s
Cc1ccccc1N1CCN(C(=O)c2cc(C)n3nccc3n2)CC1	883 s
CCn1cc(S(=O)(=O)Nc2ccc(OC)cc2)c2cccnc21	786 s
Cc1nn(-c2ccccc2)c(C)c1S(=O)(=O)N1CCC(C(=O)NC2CCCC2)CC1	860 s
CSc1ncccc1C(=O)Nc1ccc(OCc2nnc(-c3ccccc3)o2)cc1	884 s
Cc1nn(-c2nc(CC(=O)N3CCC(C)CC3)cs2)c(C)c1Cl	1190 s
O=C(O)c1cc(-c2ccc(F)cc2)nc2ccccc12	884 s
CC(C)n1nc(-c2ccc3oc(N)nc3c2)c2c(N)ncnc21	628 s
CNCc1ccc(-c2[nH]c3cc(F)cc4c3c2CCNC4=O)cc1	642 s
CN1CCN(CCNC(=O)CCCn2c(=O)c3cccn3c3ccc(F)cc32)CC1	588 s
CCc1ccc(-c2ccc(-n3nc(C)c(S(=O)(=O)N4CCCC4)c3C)nn2)cc1	1170 s
CCOc1ccc(-c2csc(Cc3nc(-c4cccc(C)c4)no3)n2)cc1	1310 s
CCC1CCCCN1C(=O)c1cnc2nc(C)ccc2c1Nc1cccc(SC)c1 (centres undefined)	713 s
CCN1C(=O)c2cccnc2Sc2cc(CNC(=O)c3ccc(OC)c(OC)c3)ccc21	711 s
CCOC(=O)c1cc(S(=O)(=O)N2CCCC2C(=O)Nc2ccccc2C(F)(F)F)cn1C (centres undefined)	999 s
CCSc1nnc(NC(=O)CCCn2nc(-c3ccc(OC)cc3)ccc2=O)s1	730 s

SMILES	RP-LC retention time
O=C(Cn1nc2c3cc(-c4ccc(F)cc4)nn3ccn2c1=O)Nc1ccc(Br)cc1	923 s
NC(=O)c1cnc(N[C@@H]2CCCC[C@@H]2N)nc1Nc1cccc(-n2nccn2)c1	654 s
Cn1c(=O)c(-c2c(Cl)cccc2Cl)cc2cnc(Nc3ccc(N4CCOCC4)cc3)nc21	1010 s
CC1=NS(=O)(=O)N(C)C=C1C(=O)OCc1nc(-c2cccc(F)c2)no1	967 s
CN1CCn2cc(S(=O)(=O)NCc3cc(F)cc(F)c3)cc2C1=O	691 s
O=C(CCc1conc1-c1ccccc1)N1CCN(C2CCCCC2)CC1	630 s
NC(=O)C1CCN(CC(=O)Nc2nc(-c3ccccc3)cs2)CC1	588 s
Cc1ccc(-c2csc(NC(=O)CCCc3nc(-c4ccc(Cl)cc4)no3)n2)cc1	1240 s
Cc1ccc(C)c(N2CCN(c3ccnc(SCC(=O)Nc4ccccc4C)n3)CC2)c1	1010 s
CCc1ccc(Nc2nc(C(=O)NCc3ccc(C)o3)nc3ccccc23)cc1	923 s
COc1cc(Cl)ccc1C(=O)N1CCN(c2cc(-c3ccc(Cl)cc3)[nH]n2)CC1	923 s
Cc1ccc(Nc2nc(-c3ccc(C)c(C)c3)cs2)nc1	859 s
Cc1ccc2c(c1)C(c1ccccc1)NCC(=O)N2 (centres undefined)	544 s
Cc1ccc(N2CCN(S(=O)(=O)N(C)C)CC2)cc1Cl	990 s
CC(C)(C)c1cc(NCc2ccccn2)n2ncc(-c3ccccc3)c2n1	1230 s
O=C(NCC1CCN(C(=O)Oc2ccccc2)CC1)C(=O)Nc1ccon1	741 s
CCCCC(=O)Nc1nnc(SCc2nnc(-c3ccccc3)o2)s1	854 s
CCCN1C(=O)COc2ccc(-c3noc(C(C)Oc4cccc(Cl)c4)n3)cc21 (centres undefined)	1260 s
C=CCn1c(=O)c(=O)n(Cc2ccc(C(=O)N3CCN(c4ncccn4)CC3)cc2)c2ccccc21	722 s
CCOC(=O)Cc1ccc(NC(=O)NCCc2c(C)nn(C)c2C)cc1	644 s
